Measured values taken from PubChem BioAssay (NCI).
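Where inhibition never reached the appropriate level, the endpoint shown equals the highest concentration tested. Otherwise, values were interpolated linearly from a five-concentration, 48-hour dose response in 96-well plates. TGI: concentration producing complete growth inhibition.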

Assays:
Assay in all cases: inhibition of tumour cell growth, NCI panel, 48 h
[1] = test system: SF-539 CNS
[2] = test system: ACHN renal
[3] = test system: MDA-MB-231 breast
[4] = test system: HCC-2998 colon
[5] = test system: NCI-H23 lung
[6] = test system: MDA-MB-435
[7] = test system: NCI/ADR-RES ovarian
[8] = test system: T-47D breast
[9] = test system: CAKI-1 renal
[10] = test system: A498 renal
[11] = test system: U251 CNS
[12] = test system: DU-145 prostate
[13] = test system: SK-MEL-5 melanoma
[14] = test system: NCI-H522 lung
[15] = test system: MDA-N
[16] = test system: SK-MEL-28 melanoma
[17] = test system: LOX IMVI melanoma
[18] = test system: RPMI-8226 leukemia
[19] = test system: UACC-62 melanoma
[20] = test system: SF-268 CNS
[21] = test system: RXF 393 renal
[22] = test system: OVCAR-5 ovarian
[23] = test system: 786-0 renal
[24] = test system: SW-620 colon
[25] = test system: OVCAR-8 ovarian
[26] = test system: SN12C renal
[27] = test system: OVCAR-4 ovarian
[28] = test system: NCI-H226 lung
[29] = test system: MOLT-4 leukemia
[30] = test system: CCRF-CEM leukemia
[31] = test system: SNB-75 CNS
[32] = test system: UACC-257 melanoma
[33] = test system: SK-OV-3 ovarian
[34] = test system: HCT-116 colon
[35] = test system: HT29 colon
[36] = test system: HS 578T breast
[37] = test system: OVCAR-3 ovarian
[38] = test system: SNB-19 CNS
[39] = test system: SR leukemia
[40] = test system: UO-31 renal
[41] = test system: HOP-92 NSCLC
[42] = test system: HOP-62 NSCLC
[43] = test system: IGROV1 ovarian
[44] = test system: PC-3 prostate
[45] = test system: HL-60(TB) leukemia
[46] = test system: NCI-H460 lung
[47] = test system: SK-MEL-2 melanoma
[48] = test system: K-562 leukemia
[49] = test system: HCT-15 colon
[50] = test system: M14 melanoma
[51] = test system: MALME-3M melanoma
[52] = test system: SF-295 CNS
[53] = test system: A549 NSCLC
[54] = test system: COLO 205 colon
[55] = test system: EKVX NSCLC
[56] = test system: KM12 colon
[57] = test system: MCF7 breast
[58] = test system: TK-10 renal

Measured: TGI

CCCCCC(/C=N/Nc1ccccc1)C(O)(C(F)(F)F)C(F)(F)F (stereo not given)
not listed: [56] | [57] | [58]
> 100 µM: all other assays above

CC(=O)Nc1cc(C(=O)Nc2cc(C(=O)Nc3cc(C(=O)Nc4cc(C(=O)Nc5cc(C(=O)NCCC(=O)NCCCN(C)C)n(C)c5)n(C)c4)n(C)c3)n(C)c2)n(C)c1
72.2 µM: [8]
73.9 µM: [30]
75 µM: [41]
55.6 µM: [14]
44.6 µM: [9]
not listed: [19] | [39]
> 100 µM: all other assays above

COc1ccc(C2=NN(C(=O)c3ccc(Cl)cc3)C(O)(c3cc(F)c(Cl)cc3Cl)C2)cc1OC (stereo not given)
2.2 µM: [45]
10.9 µM: [40]
98.4 µM: [9]
not listed: [19] | [26] | [31] | [38] | [39] | [51] | [53] | [54]
> 100 µM: all other assays above

Cn1c(-c2ccc(/C=N/N=C/c3ccc(-c4c[n+]5ccccc5n4C)cc3)cc2)c[n+]2ccccc12
not listed: [5] | [9] | [10] | [12] | [17] | [19] | [21] | [28] | [37] | [41] | [47] | [51]
> 100 µM: all other assays above

CC[C@H]1C[C@@H](O)[C@@H]2[C@H](O)[C@H](O)CN2C1
not listed: [3] | [5] | [9] | [10] | [19] | [21] | [39] | [40] | [42] | [54]
> 100 µM: all other assays above
